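Step 1: Grow cells in 96-well plates. Step 2: Expose to compound for 48 hours at 5 concentrations. Step 3: Interpolate endpoints linearly; if unreached, use highest concentration. Here, GI50 denotes the concentration required for 50% inhibition of growth. TGI: concentration producing complete growth inhibition.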
Legend:
Test in all cases: NCI anticancer screen, dose series, 48 h
786-0 renal = tested on: 786-0 renal
UO-31 renal = tested on: UO-31 renal
MDA-MB-231 breast = tested on: MDA-MB-231 breast
SK-OV-3 ovarian = tested on: SK-OV-3 ovarian
HCT-15 colon = tested on: HCT-15 colon
HCT-116 colon = tested on: HCT-116 colon
NCI-H460 lung = tested on: NCI-H460 lung
BT-549 breast = tested on: BT-549 breast

SMILES | TGI (786-0 renal) [µM] | TGI (UO-31 renal) [µM] | TGI (MDA-MB-231 breast) [µM] | TGI (SK-OV-3 ovarian) [µM] | TGI (HCT-15 colon) [µM] | TGI (HCT-116 colon) [µM] | TGI (NCI-H460 lung) [µM] | TGI (BT-549 breast) [µM] | GI50 (HCT-15 colon) [µM] | GI50 (HCT-116 colon) [µM] | GI50 (NCI-H460 lung) [µM]
COP(=O)(OC)/C(=C\c1cn(C(c2ccccc2)(c2ccccc2)c2ccccc2)cn1)NC(C)=O | > 100 | > 100 | > 100 | > 100 | > 100 | > 100 | > 100 |  |  |  | 
CC(C)C(NCc1c(O)ccc2c(-c3ccccc3)cc(=O)oc12)C(=O)O (stereo not given) | > 100 | > 100 | > 100 | > 100 | > 100 | > 100 | > 100 |  |  |  | 
O=c1ccn(C2OC(CN(O)CCC3C(CO)OC(n4ccc(=O)[nH]c4=O)C3O)C(O)C2O)c(=O)[nH]1 (stereo not given) | > 100 | > 100 | > 100 | > 100 | > 100 | > 100 | > 100 | > 100 |  |  | 
Cc1cc2c(cc1Cl)SC(NNc1ccc([N+](=O)[O-])cc1)=NS2(=O)=O | > 10 | > 10 | > 10 | > 10 | > 10 | > 10 | > 10 | > 10 |  |  | 
CCOC(=O)c1c(N2CCCC2)[nH]c(=O)c(C(c2cccs2)c2c(O)c(C(=O)OCC)c(N3CCCC3)[nH]c2=O)c1O | > 100 | > 100 | > 100 | > 100 | > 100 | > 100 | > 100 | > 100 |  |  | 
C=C(C)C12CC3CC/C(=N/O)C(C1)C3(N1CCOCC1)C/C2=N/O (stereo not given) | > 100 | > 100 | > 100 | > 100 | > 100 | > 100 | > 100 | > 100 |  |  | 
CCc1cc2c(oc3cc(C)ccc32)c(=O)n1C | > 10 | > 10 | > 10 | > 10 | > 10 | > 10 | > 10 | > 10 |  |  | 
N#Cc1c(N2CCOCC2)[nH]c(=O)c(C(c2c(Cl)cccc2Cl)c2c(O)c(C#N)c(N3CCOCC3)[nH]c2=O)c1O | > 100 | 33.5 | 30.4 |  | 28.2 | > 100 | > 100 | 32.8 |  |  | 
S=c1[nH]nc(NNc2ccccc2)n1Nc1ccccc1 | > 100 | > 100 | > 100 | > 100 | > 100 | > 100 | > 54.6 | > 100 |  |  | 
COc1ccc(C(=O)Nc2ccc3oc(-c4ccccc4)nc3c2)cc1 | > 100 | 0.838 | > 100 | > 100 | > 100 | > 100 | > 100 | > 100 |  |  | 
CCOP(=O)(OCC)/C(C#N)=C/c1c[nH]c2ccccc12 | > 100 | 77.4 | > 100 | > 100 | > 100 | > 100 | > 100 | > 100 |  |  | 
CC1OC(OC2C(Oc3cc(O)c4c(c3)O[C@H](c3ccc(O)cc3)CC4=O)OC(CO)C(O)C2O)C(O)C(O)C1O (stereo not given in full) | > 100 | > 100 | > 100 | > 100 | > 100 | > 100 |  | > 100 |  |  | 
CCN(CC)CCO/N=C1/C=C2CCC3C(CC[C@@]4(C)C3CC[C@]4(C)O)[C@@]2(C)CC1 (stereo not given in full) | 12.7 | 18.9 | 36 | 46.4 | 13.7 | 16.7 | 15.3 | 39.1 |  |  | 
C=CCn1c(-c2ccc(-c3cs/c(=N\N=O)n3CC=C)cc2)cs/c1=N\N=O | > 100 | > 100 | 69.3 | > 100 | > 100 | > 100 | > 100 | > 100 |  |  | 
CC1=NN=C(N)NC1=CC(Sc1ccc(Cl)cc1)c1c(O)ccc2ccccc12 (stereo not given) | > 65.6 | > 67.6 | 56.5 | 67.4 | > 63.3 | > 63.2 | 45.1 | > 81.5 |  |  | 
CN(C)Cc1cc(C(C)(C)C)cc(C2CCCCC2)c1O | 41.5 | 32.5 | 26.7 | 28.7 | 28.6 | > 100 | 38.3 |  |  |  | 
N#Cc1sc2c(c1O)c(=O)n(-c1ccccc1)c(=S)n2-c1ccccc1 | > 100 | > 100 | > 100 |  | > 100 |  | > 100 | > 100 |  |  | 
CC(=O)c1sc(=N)n(-c2c(C)cccc2C)c1C | > 100 | > 100 | > 100 | > 100 | > 100 |  | > 100 | > 100 |  |  | 
CC1=C(C(=O)OC(C)C)C(c2ccccc2C(F)(F)F)C(C(=O)OC(CO[N+](=O)[O-])CO[N+](=O)[O-])=C(C)N1 (stereo not given) | 14 | 4.37 | 28.2 | 38.9 | 93.8 | 16.6 | 42.6 | 22.1 |  |  | 
O=C1NC2(CCN(CCCC3(c4ccc(F)cc4)OCCO3)CC2)Oc2ccccc21 | > 100 | > 100 | > 100 | > 100 | > 100 | > 100 | > 100 |  |  |  | 
CC(=O)ON(C(C)=O)c1ccc(-c2nc3ccccc3s2)cc1C | > 100 | > 100 | > 100 |  | > 100 | > 100 | > 100 | > 100 |  |  | 
C/C(=N\NC(=S)NCc1ccccc1)c1nc2ncccc2[nH]1 | > 100 | 11 | 90.2 | > 100 | 37.2 | 17.3 | 27.6 |  |  |  | 
COc1ccc(N=[N+]([O-])c2ccc(OC)cc2)cc1 | > 100 | > 100 | > 100 | > 100 | > 100 | > 100 | > 100 | > 100 |  |  | 
Nc1nc(N)c2nc(CNc3ccc(C(=O)NC(CCCCNC(=O)c4ccccc4C(=O)O)C(=O)O)cc3)cnc2n1 (stereo not given) | > 100 | > 100 | > 100 | > 100 | > 100 | > 100 | > 100 | > 100 | 0.00522 | 0.000622 | 0.00424
c1ccc2cc3c(cc2c1)nc1ccccn13 | > 100 | > 100 |  | > 100 | > 100 | > 100 |  | > 100 |  |  | 

Reference: PubChem BioAssay (NCI)
